In ChEMBL document CHEMBL3856252, “Truncated Autoinducing Peptides as Antagonists of Staphylococcus lugdunensis Quorum Sensing” (J Med Chem, 2016):
Where a SMILES comes first, the peptide text is derived from it.

Assays:
[1] = Competitive inhibition of Staphylococcus aureus RN9372 quorum sensing system AgrC-2 by colorimetric analysis
[2] = Competitive inhibition of Staphylococcus aureus RN9222 quorum sensing system AgrC-1 by colorimetric analysis
[3] = Competitive inhibition of Staphylococcus aureus quorum sensing system AgrC-3 by colorimetric analysis
[4] = Competitive inhibition of Staphylococcus aureus SA502A quorum sensing system AgrC-2 after 24 hrs in presence of mouse IgG2a by YFP reporter gene assay
[5] = Competitive inhibition of Staphylococcus aureus MW2 quorum sensing system AgrC-3 after 24 hrs in presence of mouse IgG2a by YFP reporter gene assay
[6] = Inhibition of Staphylococcus aureus RN6390B quorum sensing system AgrC-1 using cephalosporin/nitrocefin as substrate by P3 reporter assay

CC(=O)N[C@H]1CSC(=O)[C@H](Cc2ccccc2)NC(=O)[C@H](Cc2ccc(O)cc2)NC(=O)[C@H](C)NC(=O)[C@H](CC(N)=O)NC1=O (HELM PEPTIDE1{[ac].C.N.A.Y.F}$PEPTIDE1,PEPTIDE1,2:R3-6:R2$$$V2.0)
IC50 [1]: 420 nM | IC50 [2]: 380 nM | IC50 [3]: 40 nM

CC(=O)N[C@H]1CSC(=O)[C@H](Cc2ccccc2)NC(=O)[C@H](Cc2ccc(O)cc2)NC(=O)[C@H](CO)NC(=O)[C@H](C)NC1=O (HELM PEPTIDE1{[ac].C.A.S.Y.F}$PEPTIDE1,PEPTIDE1,2:R3-6:R2$$$V2.0)
IC50 [4]: 160 nM | IC50 [5]: 13 nM

CC[C@H](C)[C@@H]1NC(=O)[C@H](Cc2ccccc2)NC(=O)[C@H](CC(=O)O)NC(=O)[C@@H](NC(=O)[C@@H](NC(=O)[C@H](CO)NC(=O)[C@@H](N)Cc2ccc(O)cc2)[C@@H](C)O)CSC(=O)[C@H](CCSC)NC1=O (HELM PEPTIDE1{Y.S.T.C.D.F.I.M}$PEPTIDE1,PEPTIDE1,4:R3-8:R2$$$V2.0)
IC50 [6]: 20 nM
